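Cells were grown in 96-well plates and exposed to each compound for 48 hours at five concentrations; endpoints were interpolated linearly between bracketing concentrations, or set to the highest concentration if not reached. The concentration for full growth arrest is given as TGI.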
Legend:
Assay in all cases: NCI tumour cell line growth inhibition, 48 h
786-0 renal = system: 786-0 renal
A498 renal = system: A498 renal
ACHN renal = system: ACHN renal
BT-549 breast = system: BT-549 breast
CAKI-1 renal = system: CAKI-1 renal
CCRF-CEM leukemia = system: CCRF-CEM leukemia
COLO 205 colon = system: COLO 205 colon
DU-145 prostate = system: DU-145 prostate
EKVX NSCLC = system: EKVX NSCLC
HCC-2998 colon = system: HCC-2998 colon
HCT-116 colon = system: HCT-116 colon
HCT-15 colon = system: HCT-15 colon
HL-60(TB) leukemia = system: HL-60(TB) leukemia
HOP-62 NSCLC = system: HOP-62 NSCLC
HOP-92 NSCLC = system: HOP-92 NSCLC
HS 578T breast = system: HS 578T breast
HT29 colon = system: HT29 colon
IGROV1 ovarian = system: IGROV1 ovarian
K-562 leukemia = system: K-562 leukemia
KM12 colon = system: KM12 colon
LOX IMVI melanoma = system: LOX IMVI melanoma
M14 melanoma = system: M14 melanoma
MCF7 breast = system: MCF7 breast
MDA-MB-231 breast = system: MDA-MB-231 breast
MDA-MB-435 = system: MDA-MB-435
NCI-H226 lung = system: NCI-H226 lung
NCI-H23 lung = system: NCI-H23 lung
NCI-H460 lung = system: NCI-H460 lung
NCI/ADR-RES ovarian = system: NCI/ADR-RES ovarian
OVCAR-4 ovarian = system: OVCAR-4 ovarian
OVCAR-8 ovarian = system: OVCAR-8 ovarian
PC-3 prostate = system: PC-3 prostate
RPMI-8226 leukemia = system: RPMI-8226 leukemia
RXF 393 renal = system: RXF 393 renal
SF-268 CNS = system: SF-268 CNS
SF-295 CNS = system: SF-295 CNS
SF-539 CNS = system: SF-539 CNS
SK-MEL-2 melanoma = system: SK-MEL-2 melanoma
SK-MEL-28 melanoma = system: SK-MEL-28 melanoma
SK-MEL-5 melanoma = system: SK-MEL-5 melanoma
SK-OV-3 ovarian = system: SK-OV-3 ovarian
SNB-19 CNS = system: SNB-19 CNS
SNB-75 CNS = system: SNB-75 CNS
SR leukemia = system: SR leukemia
SW-620 colon = system: SW-620 colon
T-47D breast = system: T-47D breast
TK-10 renal = system: TK-10 renal
U251 CNS = system: U251 CNS
UACC-257 melanoma = system: UACC-257 melanoma
UACC-62 melanoma = system: UACC-62 melanoma
UO-31 renal = system: UO-31 renal
A549 NSCLC = system: A549 NSCLC
MALME-3M melanoma = system: MALME-3M melanoma
NCI-H522 lung = system: NCI-H522 lung
OVCAR-3 ovarian = system: OVCAR-3 ovarian
OVCAR-5 ovarian = system: OVCAR-5 ovarian
SN12C renal = system: SN12C renal
MOLT-4 leukemia = system: MOLT-4 leukemia

Compound: CCOC(=O)C(C)c1nc2cc3cccnc3c(Cl)c2[nH]c1=O (configuration not stated)
- TGI (786-0 renal): > 100 µM
- TGI (A498 renal): > 100 µM
- TGI (ACHN renal): > 100 µM
- TGI (BT-549 breast): > 100 µM
- TGI (CAKI-1 renal): > 100 µM
- TGI (CCRF-CEM leukemia): > 100 µM
- TGI (COLO 205 colon): > 100 µM
- TGI (DU-145 prostate): 50 µM
- TGI (EKVX NSCLC): > 100 µM
- TGI (HCC-2998 colon): > 100 µM
- TGI (HCT-116 colon): > 100 µM
- TGI (HCT-15 colon): > 100 µM
- TGI (HL-60(TB) leukemia): > 100 µM
- TGI (HOP-62 NSCLC): > 100 µM
- TGI (HOP-92 NSCLC): > 100 µM
- TGI (HS 578T breast): > 100 µM
- TGI (HT29 colon): > 100 µM
- TGI (IGROV1 ovarian): > 100 µM
- TGI (K-562 leukemia): > 100 µM
- TGI (KM12 colon): > 100 µM
- TGI (LOX IMVI melanoma): > 100 µM
- TGI (M14 melanoma): > 100 µM
- TGI (MCF7 breast): > 100 µM
- TGI (MDA-MB-231 breast): > 100 µM
- TGI (MDA-MB-435): > 100 µM
- TGI (NCI-H226 lung): > 100 µM
- TGI (NCI-H23 lung): > 100 µM
- TGI (NCI-H460 lung): > 100 µM
- TGI (NCI/ADR-RES ovarian): > 100 µM
- TGI (OVCAR-4 ovarian): > 100 µM
- TGI (OVCAR-8 ovarian): > 100 µM
- TGI (PC-3 prostate): > 100 µM
- TGI (RPMI-8226 leukemia): > 100 µM
- TGI (RXF 393 renal): > 100 µM
- TGI (SF-268 CNS): > 100 µM
- TGI (SF-295 CNS): > 100 µM
- TGI (SF-539 CNS): > 100 µM
- TGI (SK-MEL-2 melanoma): > 100 µM
- TGI (SK-MEL-28 melanoma): > 100 µM
- TGI (SK-MEL-5 melanoma): > 100 µM
- TGI (SK-OV-3 ovarian): > 100 µM
- TGI (SNB-19 CNS): > 100 µM
- TGI (SNB-75 CNS): > 100 µM
- TGI (SR leukemia): > 100 µM
- TGI (SW-620 colon): > 100 µM
- TGI (T-47D breast): > 100 µM
- TGI (TK-10 renal): > 100 µM
- TGI (U251 CNS): > 100 µM
- TGI (UACC-257 melanoma): > 100 µM
- TGI (UACC-62 melanoma): > 100 µM
- TGI (UO-31 renal): > 100 µM

Compound: CCOC(=O)C(Br)(C(N)=O)C1(O)OC(c2ccccc2)=C(Br)C1=O (configuration not stated)
- TGI (786-0 renal): 41.9 µM
- TGI (A498 renal): > 100 µM
- TGI (A549 NSCLC): 66.8 µM
- TGI (ACHN renal): 32.3 µM
- TGI (BT-549 breast): 34.3 µM
- TGI (CAKI-1 renal): 40.1 µM
- TGI (CCRF-CEM leukemia): 10.2 µM
- TGI (COLO 205 colon): 30.7 µM
- TGI (DU-145 prostate): > 100 µM
- TGI (EKVX NSCLC): 46.8 µM
- TGI (HCC-2998 colon): 35 µM
- TGI (HCT-116 colon): 36.5 µM
- TGI (HCT-15 colon): 34.8 µM
- TGI (HL-60(TB) leukemia): > 100 µM
- TGI (HOP-62 NSCLC): 81.2 µM
- TGI (HS 578T breast): > 100 µM
- TGI (HT29 colon): 39.3 µM
- TGI (IGROV1 ovarian): 43.5 µM
- TGI (K-562 leukemia): 53.7 µM
- TGI (KM12 colon): > 100 µM
- TGI (LOX IMVI melanoma): 46.1 µM
- TGI (M14 melanoma): 62.9 µM
- TGI (MALME-3M melanoma): 55.6 µM
- TGI (MCF7 breast): 41 µM
- TGI (MDA-MB-231 breast): 33.6 µM
- TGI (MDA-MB-435): > 100 µM
- TGI (NCI-H226 lung): 42.3 µM
- TGI (NCI-H23 lung): 53.7 µM
- TGI (NCI-H460 lung): > 100 µM
- TGI (NCI-H522 lung): 11.7 µM
- TGI (NCI/ADR-RES ovarian): > 100 µM
- TGI (OVCAR-3 ovarian): 55 µM
- TGI (OVCAR-5 ovarian): 37 µM
- TGI (OVCAR-8 ovarian): 33.3 µM
- TGI (PC-3 prostate): 36.3 µM
- TGI (RPMI-8226 leukemia): 27.7 µM
- TGI (RXF 393 renal): 34.4 µM
- TGI (SF-268 CNS): 41.5 µM
- TGI (SF-295 CNS): > 100 µM
- TGI (SF-539 CNS): 32.3 µM
- TGI (SK-MEL-2 melanoma): > 100 µM
- TGI (SK-MEL-28 melanoma): > 100 µM
- TGI (SK-MEL-5 melanoma): 60.2 µM
- TGI (SK-OV-3 ovarian): > 100 µM
- TGI (SN12C renal): 31.7 µM
- TGI (SNB-19 CNS): > 100 µM
- TGI (SR leukemia): 41.3 µM
- TGI (SW-620 colon): 43.1 µM
- TGI (T-47D breast): 59.6 µM
- TGI (TK-10 renal): 33.3 µM
- TGI (U251 CNS): 32.6 µM
- TGI (UACC-257 melanoma): > 100 µM
- TGI (UACC-62 melanoma): 92.9 µM
- TGI (UO-31 renal): 44 µM

Compound: CC(C)(O)[C@@H]1CC[C@](C)(C2[C@@H](O)C[C@@]3(C)C4C[C@H](OC5OCC(O)C(O)C5O)[C@H]5C(C)(C)[C@@H](OC6OCC(O)C(O)C6OC6OCC(O)C(O)C6O)CC[C@@]56C[C@@]46CC[C@]23C)O1 (some centres not stated)
- TGI (786-0 renal): > 100 µM
- TGI (A498 renal): > 100 µM
- TGI (A549 NSCLC): > 100 µM
- TGI (BT-549 breast): > 100 µM
- TGI (CAKI-1 renal): > 100 µM
- TGI (CCRF-CEM leukemia): > 100 µM
- TGI (COLO 205 colon): > 100 µM
- TGI (DU-145 prostate): > 100 µM
- TGI (EKVX NSCLC): > 100 µM
- TGI (HCC-2998 colon): > 100 µM
- TGI (HCT-116 colon): > 100 µM
- TGI (HCT-15 colon): > 100 µM
- TGI (HL-60(TB) leukemia): > 100 µM
- TGI (HOP-62 NSCLC): > 100 µM
- TGI (HS 578T breast): > 100 µM
- TGI (HT29 colon): > 100 µM
- TGI (IGROV1 ovarian): > 100 µM
- TGI (K-562 leukemia): > 100 µM
- TGI (KM12 colon): > 100 µM
- TGI (M14 melanoma): > 100 µM
- TGI (MCF7 breast): > 100 µM
- TGI (MDA-MB-231 breast): > 100 µM
- TGI (MDA-MB-435): > 100 µM
- TGI (MOLT-4 leukemia): > 100 µM
- TGI (NCI-H226 lung): > 100 µM
- TGI (NCI-H23 lung): > 100 µM
- TGI (NCI-H460 lung): > 100 µM
- TGI (NCI-H522 lung): > 100 µM
- TGI (NCI/ADR-RES ovarian): > 100 µM
- TGI (OVCAR-3 ovarian): > 100 µM
- TGI (OVCAR-4 ovarian): > 100 µM
- TGI (OVCAR-5 ovarian): > 100 µM
- TGI (OVCAR-8 ovarian): > 100 µM
- TGI (PC-3 prostate): > 100 µM
- TGI (RPMI-8226 leukemia): > 100 µM
- TGI (RXF 393 renal): > 100 µM
- TGI (SF-268 CNS): > 100 µM
- TGI (SF-295 CNS): > 100 µM
- TGI (SF-539 CNS): > 100 µM
- TGI (SK-MEL-2 melanoma): > 100 µM
- TGI (SK-MEL-28 melanoma): > 100 µM
- TGI (SK-MEL-5 melanoma): > 100 µM
- TGI (SK-OV-3 ovarian): > 100 µM
- TGI (SN12C renal): > 100 µM
- TGI (SNB-19 CNS): > 100 µM
- TGI (SNB-75 CNS): > 100 µM
- TGI (SR leukemia): > 100 µM
- TGI (SW-620 colon): > 100 µM
- TGI (T-47D breast): > 100 µM
- TGI (U251 CNS): > 100 µM
- TGI (UACC-62 melanoma): > 100 µM
- TGI (UO-31 renal): > 100 µM

— PubChem BioAssay (NCI)
